This note sets out measurements from the OligoGym collection.

In this data set the target is HBV. The conditions noted are these: ASO.

“And” between values parts separate entries of the source, which are not always exact repeats. Equal values may be shown once. HELM strings list units from the 5' end as sugar, base in round brackets, then linkage (d deoxyribose, r ribose, m 2'-O-methyl, p phosphodiester). Methylation of C is not given here. [moe] = 2'-O-(2-methoxyethyl) (MOE); [cEt] = constrained ethyl (cEt); [sp] = phosphorothioate linkage

Consider “RNA1{[moe](C)[sp].[cEt](A)[sp].d(C)[sp].d(T)[sp].d(G)[sp].d(A)[sp].d(A)[sp].d(C)[sp].d(A)[sp].d(A)[sp].d(A)[sp].d(T)[sp].[cEt](G)[sp].[moe](G)[sp].[cEt](C)[sp].[moe](A)}$$$$V2.0”, for which the target mRNA inhibition reads like this: (HepG2, 0.0092593 µM) 5%; (HepG2, 0.0277778 µM) 26%; (HepG2, 0.0833333 µM) 64%; (HepG2, 0.25 µM) 82%.
Turning to “RNA1{[moe](T)[sp].[moe](G)[sp].d(A)[sp].d(A)[sp].d(G)[sp].d(C)[sp].d(G)[sp].d(A)[sp].d(A)[sp].d(G)[sp].d(T)[sp].[moe](G)[sp].[moe](C)[sp].[moe](A)[sp].[moe](C)[sp].[moe](A)[sp].[moe](C)}$$$$V2.0”, the target mRNA inhibition (HepG2, 0.07 µM) is 81% and 79%.
With “RNA1{d(C)[sp].d(C)[sp].d(A)[sp].d(A)[sp].d(A)[sp].d(G)[sp].d(C)[sp].d(C)[sp].d(A)[sp].d(C)[sp].d(C)[sp].d(C)[sp].d(A)[sp].d(A)[sp].d(G)[sp].d(G)}$$$$V2.0”, the target mRNA inhibition is, setting by setting: (HepG2, 0.01875 µM) 4% and 0%; (HepG2, 0.0375 µM) 0%; (HepG2, 0.075 µM) 0%; (HepG2, 0.15 µM) 3% and 0%; (HepG2, 0.3 µM) 13%.
As for “RNA1{[moe](A)[sp].[moe](A)[sp].d(T)[sp].d(T)[sp].d(T)[sp].d(A)[sp].d(T)[sp].d(G)[sp].d(C)[sp].d(C)[sp].d(T)[sp].[moe](A)[sp].[moe](C)[sp].[moe](A)[sp].[moe](G)[sp].[moe](C)}$$$$V2.0”, under “HepG2, 0.07 µM”, the target mRNA inhibition is 27% and 19%.
On the same count and under the same terms, the figure for “RNA1{[moe](C)[sp].[moe](G)[sp].[moe](T)[sp].d(G)[sp].d(C)[sp].d(A)[sp].d(G)[sp].d(A)[sp].d(G)[sp].d(G)[sp].d(T)[sp].d(G)[sp].[moe](A)[sp].[moe](A)[sp].[moe](G)[sp].[moe](C)[sp].[moe](G)}$$$$V2.0” is 70% and 64%; for “RNA1{[moe](G)[sp].[moe](A)[sp].[moe](G)[sp].d(T)[sp].d(T)[sp].d(C)[sp].d(C)[sp].d(G)[sp].d(C)[sp].d(A)[sp].d(G)[sp].d(T)[sp].d(A)[sp].[cEt](T)[sp].[cEt](G)[sp].[cEt](G)}$$$$V2.0” it is 70% and 62%.
Still for that read-out and setting: the figure for “RNA1{[moe](T)[sp].[moe](G)[sp].[moe](C)[sp].d(A)[sp].d(G)[sp].d(A)[sp].d(G)[sp].d(G)[sp].d(T)[sp].d(G)[sp].d(A)[sp].d(A)[sp].[moe](G)[sp].[moe](C)[sp].[moe](G)[sp].[moe](A)}$$$$V2.0” is 51% and 56%.
“RNA1{[moe](G)[sp].[moe](A)[sp].[moe](G)[sp].d(G)[sp].d(C)[sp].d(A)[sp].d(T)[sp].d(A)[sp].d(G)[sp].d(C)[sp].d(A)[sp].d(G)[sp].d(C)[sp].[moe](A)[sp].[moe](G)[sp].[moe](G)}$$$$V2.0” gave a target mRNA inhibition (HepG2, 0.0092593 µM) of 4%; a target mRNA inhibition (HepG2, 0.0277778 µM) of 24%; a target mRNA inhibition (HepG2, 0.0833333 µM) of 49%; a target mRNA inhibition (HepG2, 0.25 µM) of 67%.
For the substance “RNA1{[moe](C)[sp].[moe](C)[sp].[moe](A)[sp].d(A)[sp].d(T)[sp].d(T)[sp].d(T)[sp].d(A)[sp].d(T)[sp].d(G)[sp].d(C)[sp].d(C)[sp].[moe](T)[sp].[moe](A)[sp].[moe](C)[sp].[moe](A)[sp].[moe](G)}$$$$V2.0”, the target mRNA inhibition (HepG2, 0.07 µM) was 53% and 32%.
Still for that read-out and setting: the figure for “RNA1{[moe](T)[sp].[cEt](C)[sp].[cEt](A)[sp].d(G)[sp].d(C)[sp].d(A)[sp].d(A)[sp].d(A)[sp].d(C)[sp].d(A)[sp].d(C)[sp].d(T)[sp].d(T)[sp].[cEt](G)[sp].[cEt](G)[sp].[moe](C)}$$$$V2.0” is 67% and 71%; for “RNA1{[moe](C)[sp].[cEt](C)[sp].[cEt](A)[sp].d(A)[sp].d(T)[sp].d(T)[sp].d(T)[sp].d(A)[sp].d(T)[sp].d(G)[sp].d(C)[sp].d(C)[sp].d(T)[sp].[cEt](A)[sp].[cEt](C)[sp].[moe](A)}$$$$V2.0” it is 42% and 18%; for “RNA1{[moe](A)[sp].[moe](A)[sp].[moe](G)[sp].d(C)[sp].d(G)[sp].d(A)[sp].d(A)[sp].d(G)[sp].d(T)[sp].d(G)[sp].d(C)[sp].d(A)[sp].d(C)[sp].[cEt](A)[sp].[cEt](C)[sp].[cEt](G)}$$$$V2.0” it is 70% and 63%.
In the case of “RNA1{[moe](A)[sp].[moe](C)[sp].[moe](T)[sp].[moe](A)[sp].[moe](G)[sp].[moe](T)[sp].d(A)[sp].d(A)[sp].d(A)[sp].d(C)[sp].d(T)[sp].d(G)[sp].d(A)[sp].d(G)[sp].d(C)[sp].[moe](C)[sp].[moe](A)}$$$$V2.0”, the target mRNA inhibition runs as follows: (HepG2, 0.0092593 µM) 2%; (HepG2, 0.0277778 µM) 15%; (HepG2, 0.07 µM) 84% and 75%; (HepG2, 0.0833333 µM) 38%; (HepG2, 0.25 µM) 75%.
In the case of “RNA1{[moe](T)[sp].[moe](C)[sp].[moe](C)[sp].[moe](G)[sp].[moe](C)[sp].d(A)[sp].d(G)[sp].d(T)[sp].d(A)[sp].d(T)[sp].d(G)[sp].d(G)[sp].d(A)[sp].d(T)[sp].[moe](C)[sp].[moe](G)[sp].[moe](G)}$$$$V2.0”, for the setting “HepG2, 0.07 µM”, the target mRNA inhibition is 77% and 68%.
For the substance “RNA1{[moe](G)[sp].[moe](A)[sp].[moe](G)[sp].[moe](T)[sp].[moe](T)[sp].d(C)[sp].d(C)[sp].d(G)[sp].d(C)[sp].d(A)[sp].d(G)[sp].d(T)[sp].d(A)[sp].d(T)[sp].[moe](G)[sp].[moe](G)[sp].[moe](A)}$$$$V2.0”, for the setting “HepG2, 0.07 µM”, the target mRNA inhibition is 75% and 56%.
Same read-out and setting: next, “RNA1{[moe](T)[sp].[moe](T)[sp].[moe](C)[sp].[moe](C)[sp].[moe](G)[sp].[moe](C)[sp].d(A)[sp].d(G)[sp].d(T)[sp].d(A)[sp].d(T)[sp].d(G)[sp].d(G)[sp].d(A)[sp].d(T)[sp].[moe](C)[sp].[moe](G)}$$$$V2.0”: 45% and 53%.
Still for that read-out and setting: next, “RNA1{[moe](A)[sp].[moe](G)[sp].[moe](G)[sp].d(C)[sp].d(A)[sp].d(T)[sp].d(A)[sp].d(G)[sp].d(C)[sp].d(A)[sp].d(G)[sp].d(C)[sp].[moe](A)[sp].[moe](G)[sp].[moe](G)[sp].[moe](A)}$$$$V2.0”: 54% and 53%.
Still for that read-out and setting: the figure for “RNA1{[moe](G)[sp].[moe](A)[sp].[moe](A)[sp].[moe](G)[sp].[moe](T)[sp].d(C)[sp].d(C)[sp].d(A)[sp].d(C)[sp].d(C)[sp].d(A)[sp].d(C)[sp].d(G)[sp].d(A)[sp].[moe](G)[sp].[moe](T)[sp].[moe](C)}$$$$V2.0” is 5% and 2%; for “RNA1{[moe](T)[sp].[moe](G)[sp].[moe](A)[sp].[moe](A)[sp].[moe](G)[sp].[moe](C)[sp].d(G)[sp].d(A)[sp].d(A)[sp].d(G)[sp].d(T)[sp].d(G)[sp].d(C)[sp].d(A)[sp].d(C)[sp].[moe](A)[sp].[moe](C)}$$$$V2.0” it is 84% and 64%.
With “RNA1{[moe](C)[sp].[moe](T)[sp].[moe](G)[sp].[moe](G)[sp].d(A)[sp].d(G)[sp].d(C)[sp].d(C)[sp].d(A)[sp].d(C)[sp].d(C)[sp].d(A)[sp].d(G)[sp].[moe](C)[sp].[moe](A)[sp].[moe](G)[sp].[moe](G)}$$$$V2.0”, the target mRNA inhibition (HepG2, 0.0092593 µM) was 0%; the target mRNA inhibition (HepG2, 0.0277778 µM) was determined as 24%; the target mRNA inhibition (HepG2, 0.07 µM) was 79% and 76%; the target mRNA inhibition (HepG2, 0.0833333 µM) amounted to 65%; the target mRNA inhibition (HepG2, 0.25 µM) stood at 79%.
